We go through five molecules from US4087421A, “Substituted benzodiazepines and method of use” (American Cyanamid Company, priority 1977, dated 1978).

Holding throughout (format): in vivo
Experiment [1] is described as follows: Inhibition of tetrabenazine induced depression of exploratory behavior in mice. The following applies: for Number Responded/Number Treated: intraperitoneally or orally, 1 h before tetrabenazine 30 mg/kg; for ED50: Mus musculus, calculated by method of Finney, dose column in mg/kg, read-out: ED50 (95% C.L.). As to the method:
Varying doses of the test compounds are administered intraperitoneally or orally to 5 mice one hour before the administration of tetrabenazine hexamate at an intraperitoneal dose of 30 mg/kg which is known to depress markedly the exploratory behavior of normal mice. Thirty minutes later the mice are tested for their exploratoy behavior. Individual mice are placed in the center of a horizontal disc. Inhibition of the depression induced by tetrabenazine is considered present if the mice perform one or more of the following actions within 10 seconds after being placed on the disc:
(1) Animals move to the edge of the disc and pear over the side.
(2) Animals move 180° in place.
(3) Animals display a head movement of 90° immediately followed by a head movement in the opposite direction of at least 45°.
Administration of the test compounds to additional groups of 5 mice is repeated, the numbers of individual animals showing an anti-depressant response (normal exploratory behavior) is recorded and the results are analyzed by the following scheme (statistically standardized; significant P = less than 0.05).
The results from several dose levels (acceptance in at least two sequential test procedures) are then used to establish the Range of Active Doses.

Experiment [2] is described as follows: Enhancement of yohimbine lethality in mice. The following applies: 25 mg/kg intraperitoneal, yohimbine 34 mg/kg.
Description: The test compounds were administered intraperitoneally, at various dose levels, to groups of 10 mice. One hour later all mice received yohimbine at a dose (34 mg/kg) estimated to have a lethal effect in 4% of the mice. Deaths were recorded 18 to 24 hours later.
Experiment [3] is described as follows: Prevention of reserpine-induced hypothermia in rats. The following applies: for ED50: Rattus norvegicus, oral, dose column in mg/kg, read-out: ED50 (95% C.L.). How it is done: Groups of 5 rats were treated orally with graded doses of the test compounds. One hour later the animals were treated with reserpine (solubilized in propylene glycol and citric acid) at a dose of 5 mg/kg intraperitoneally. Rectal temperatures were measured using a YSI Telethermometer. Temperatures were recorded just prior to treatment, one hour later just prior to reserpine administration and at hourly intervals following reserpine administration for 5 hours. […]

Where [4] appears, read: 5 mg/kg oral, 2 hours after reserpine.
Setting [5] is: 5 mg/kg oral, 3 hours after reserpine.
Setting [6] is: 5 mg/kg oral, 4 hours after reserpine.
The mark [7] stands for this setting: 5 mg/kg oral, 5 hours after reserpine.
[8] abbreviates: 10 mg/kg oral, 2 hours after reserpine.
Where [9] appears, read: 10 mg/kg oral, 3 hours after reserpine.
The mark [10] stands for this setting: 10 mg/kg oral, 4 hours after reserpine.
Setting [11] is: 10 mg/kg oral, 5 hours after reserpine.
Setting [12] is: 20 mg/kg oral, 2 hours after reserpine.
[13] abbreviates: 20 mg/kg oral, 3 hours after reserpine.
The mark [14] stands for this setting: 20 mg/kg oral, 4 hours after reserpine.
The mark [15] stands for this setting: 20 mg/kg oral, 5 hours after reserpine.

Take `CCN1c2ccccc2N=C(N2CCN(C)CC2)c2cscc21` [4-Ethyl-10-(4-methyl-1-piperazinyl)-4H-thieno[3,4-b][1,5]benzodiazepine]: the “Number Responded/Number Treated” value in experiment [1] (3.13 mg/kg) is given as 3/15; in experiment [1] (6.25 mg/kg) it was 10/30; in experiment [1] (12.5 mg/kg) it was 9/25; in experiment [1] (25.0 mg/kg), 9/20. Besides, the ED50 in experiment [1] was roughly 37 mg/kg; in experiment [3] (2 hours after reserpine), 11.6 mg/kg; in experiment [3] (3 hours after reserpine) it was 8.7 mg/kg; in experiment [3] (4 hours after reserpine) it was 9.7 mg/kg; in experiment [3] (5 hours after reserpine) it was 16.9 mg/kg. The “Number Dead/Number Treated” value in experiment [2] (18 hours) is recorded as 7/10; in experiment [2] (24 hours), 8/10. For the same molecule, the “Percent of Animals Showing > Two Standard Deviations in Rectal Temperature Over Control Means” value in experiment [3] (setting [4]) turned out to be 0%; in experiment [3] (setting [5]) it was 0%; in experiment [3] (setting [6]), 0%; in experiment [3] (setting [7]), 0%; in experiment [3] (setting [8]), 60%; in experiment [3] (setting [9]), 100%. In addition, the “Percent of Animals Showing > Two Standard Deviations in Rectal Temperature Over Control Means” value is 60% in experiment [3] (setting [10]); 20% in experiment [3] (setting [11]); 80% in experiment [3] (setting [12]); 80% in experiment [3] (setting [13]); 100% in experiment [3] (setting [14]); 60% in experiment [3] (setting [15]).
On to `CN(C)CCCN1c2ccccc2CCc2ccccc21` [Imipramine, reference compound], for which the “Number Responded/Number Treated” value in experiment [1] (0.78 mg/kg) is 1/10; in experiment [1] (1.56 mg/kg), 2/10; in experiment [1] (3.13 mg/kg) it was 4/10; in experiment [1] (6.25 mg/kg), 7/10; in experiment [1] (12.5 mg/kg), 7/10; in experiment [1] (25.0 mg/kg), 9/10. Moreover, the ED50 in experiment [1] is 4.4 mg/kg; in experiment [3] (2 hours after reserpine) it was 1.2 mg/kg; in experiment [3] (3 hours after reserpine), 2.2 mg/kg; in experiment [3] (4 hours after reserpine), 2.2 mg/kg; in experiment [3] (5 hours after reserpine) it was 1.3 mg/kg. Besides, the “Percent of Animals Showing > Two Standard Deviations in Rectal Temperature Over Control Means” value is recorded as 0% in experiment [3] (0.20 mg/kg oral, 2 hours after reserpine); 0% in experiment [3] (0.20 mg/kg oral, 3 hours after reserpine); 0% in experiment [3] (0.20 mg/kg oral, 4 hours after reserpine); 0% in experiment [3] (0.20 mg/kg oral, 5 hours after reserpine); 0% in experiment [3] (0.39 mg/kg oral, 2 hours after reserpine); 10% in experiment [3] (0.39 mg/kg oral, 3 hours after reserpine). Besides, the “Percent of Animals Showing > Two Standard Deviations in Rectal Temperature Over Control Means” value in experiment [3] (0.39 mg/kg oral, 4 hours after reserpine) is given as 0%; in experiment [3] (0.39 mg/kg oral, 5 hours after reserpine), 0%; in experiment [3] (0.78 mg/kg oral, 2 hours after reserpine), 21%; in experiment [3] (0.78 mg/kg oral, 3 hours after reserpine), 0%; in experiment [3] (0.78 mg/kg oral, 4 hours after reserpine) it was 0%; in experiment [3] (0.78 mg/kg oral, 5 hours after reserpine), 7%. Also, the “Percent of Animals Showing > Two Standard Deviations in Rectal Temperature Over Control Means” value in experiment [3] (1.56 mg/kg oral, 2 hours after reserpine) is on record as 40%; in experiment [3] (1.56 mg/kg oral, 3 hours after reserpine), 20%; in experiment [3] (1.56 mg/kg oral, 4 hours after reserpine), 20%; in experiment [3] (1.56 mg/kg oral, 5 hours after reserpine), 40%; in experiment [3] (3.13 mg/kg oral, 2 hours after reserpine) it was 100%; in experiment [3] (3.13 mg/kg oral, 3 hours after reserpine), 90%. Further, the “Percent of Animals Showing > Two Standard Deviations in Rectal Temperature Over Control Means” value in experiment [3] (3.13 mg/kg oral, 4 hours after reserpine) worked out at 80%; in experiment [3] (3.13 mg/kg oral, 5 hours after reserpine) it was 100%; in experiment [3] (6.25 mg/kg oral, 2 hours after reserpine) it was 100%; in experiment [3] (6.25 mg/kg oral, 3 hours after reserpine), 100%; in experiment [3] (6.25 mg/kg oral, 4 hours after reserpine), 100%; in experiment [3] (6.25 mg/kg oral, 5 hours after reserpine), 100%. For the same molecule, the “Percent of Animals Showing > Two Standard Deviations in Rectal Temperature Over Control Means” value was found to be 100% in experiment [3] (12.5 mg/kg oral, 2 hours after reserpine); 80% in experiment [3] (12.5 mg/kg oral, 3 hours after reserpine); 100% in experiment [3] (12.5 mg/kg oral, 4 hours after reserpine); 100% in experiment [3] (12.5 mg/kg oral, 5 hours after reserpine).
Turning to `CN1c2ccccc2N=C(N2CCNCC2)c2cscc21` [4-Methyl-10-(1-piperazinyl)-4H-thieno[3,4-b][1,5]benzodiazepine], the “Number Responded/Number Treated” value is 5/30 in experiment [1] (1.56 mg/kg); 10/30 in experiment [1] (3.13 mg/kg); 9/20 in experiment [1] (6.25 mg/kg); 11/20 in experiment [1] (12.5 mg/kg); 10/20 in experiment [1] (25.0 mg/kg). Further, the ED50 in experiment [1] was 13 mg/kg.
As to `CCN1CCN(C2=Nc3ccccc3N(C)c3cscc32)CC1` [4-Methyl-10-(4-ethyl-1-piperazinyl)-4H-thieno[3,4-b][1,5]benzodiazepine], the “Number Responded/Number Treated” value was 3/15 in experiment [1] (3.13 mg/kg), 10/30 in experiment [1] (6.25 mg/kg), 12/25 in experiment [1] (12.5 mg/kg) and 10/25 in experiment [1] (25.0 mg/kg). The ED50 in experiment [1] is roughly 35 mg/kg.
Take `CN1c2ccccc2N=C(N2CCN(CCO)CC2)c2cscc21` [4-(4-Methyl-4H-thieno[3,4-b][1,5]-benzodiazepin-10-yl)-1-piperazineethanol]: the “Number Responded/Number Treated” value is reported as 5/30 in experiment [1] (1.56 mg/kg); 10/30 in experiment [1] (3.13 mg/kg); 9/20 in experiment [1] (6.25 mg/kg); 11/20 in experiment [1] (12.5 mg/kg); 10/20 in experiment [1] (25.0 mg/kg). Besides, the ED50 in experiment [1] is 13 mg/kg; in experiment [3] (2 hours after reserpine), 9.1 mg/kg; in experiment [3] (3 hours after reserpine) it was 10.6 mg/kg; in experiment [3] (4 hours after reserpine) it was 10.6 mg/kg; in experiment [3] (5 hours after reserpine), 14.6 mg/kg. Besides, the “Percent of Animals Showing > Two Standard Deviations in Rectal Temperature Over Control Means” value amounted to 0% in experiment [3] (setting [4]); 0% in experiment [3] (setting [5]); 0% in experiment [3] (setting [6]); 0% in experiment [3] (setting [7]); 80% in experiment [3] (setting [8]); 80% in experiment [3] (setting [9]). Also, the “Percent of Animals Showing > Two Standard Deviations in Rectal Temperature Over Control Means” value in experiment [3] (setting [10]) is given as 80%; in experiment [3] (setting [11]), 80%; in experiment [3] (setting [12]), 100%; in experiment [3] (setting [13]), 80%; in experiment [3] (setting [14]) it was 80%; in experiment [3] (setting [15]) it was 40%.
